Structures can show the parent of a compound that is named as a salt.

D2-like dopamine receptors, sequence (P61169 whole entry): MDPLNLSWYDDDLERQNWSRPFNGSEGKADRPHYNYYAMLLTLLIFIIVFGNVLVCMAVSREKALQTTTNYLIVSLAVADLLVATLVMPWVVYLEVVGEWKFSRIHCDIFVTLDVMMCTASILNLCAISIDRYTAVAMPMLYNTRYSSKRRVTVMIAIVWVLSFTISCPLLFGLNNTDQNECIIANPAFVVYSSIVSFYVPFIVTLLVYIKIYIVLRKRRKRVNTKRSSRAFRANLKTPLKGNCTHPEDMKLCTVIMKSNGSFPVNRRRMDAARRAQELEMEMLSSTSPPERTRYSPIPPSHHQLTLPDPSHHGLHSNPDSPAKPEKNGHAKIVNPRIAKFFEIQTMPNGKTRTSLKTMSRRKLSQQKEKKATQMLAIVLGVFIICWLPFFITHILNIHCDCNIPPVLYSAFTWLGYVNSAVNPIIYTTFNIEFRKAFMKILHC

For the first data set, the target named is D2-like dopamine receptors (Rattus norvegicus, UniProt P61169). As to the kind of experiment: Inhibition of tritiated (S)-sulpiride binding to D2-like dopamine receptors in rat striatal tissue. To be noted: ligand tritiated (S)-sulpiride 1 nM, 4° C., 40 minutes. The method, then:
Striatal tissue from the brains of male Charles River CD rats weighing between 140-250 g were homogenised in ice-cold 50 mM Tris-HCl buffer (pH 7.7 when measured at 25° C.) and centrifuged at 40,000 g for 10 minutes. The pellet was resuspended in Tris salts buffer (50 mM Tris-HCl buffer containing 120 mM NaCl, 5 mM KCl, 2 mM CaCl2 and 1 mM MgCl2 with the addition of 6 mM ascorbic acid; pH 7.7 when measured at 25° C.), and again centrifuged at 40,000 g for 10 minutes. The final pellet was stored at −80° C. Before each test the pellet was resuspended in Tris salts buffer (equivalent to 2 mg wet weight of tissue/ml). […]
The filters were washed with ice-cold Tris-HCl buffer and dried. The filters were punched out in to vials, scintillation fluid added and were left for about 20 hours before being counted by scintillation spectrophotometry. The percentage displacement of specific binding of the tritiated ligand was calculated for the single concentration (10^−6M) of test compound. […] The inhibition coefficient Ki then calculated using the formula [formula] […]
As a reminder, the Ki is a dissociation constant, usually derived from enzyme kinetics or from competition with a known ligand. High values mean a looser hold on the target, low ones a stronger hold on the target. For `CCOC(=O)c1cc2c3c(ccc2[nH]1)OC[C@H](CNCC1CCN(c2ccccc2OC)CC1)O3` [Example 3, ethyl (S)-2,3-dihydro-2-(N-{[1-(2-methoxyphenyl)piperid-4-yl]methyl}aminomethyl)-7H-1,4-dioxino[2,3-e]indole-8-carboxylate 0.05 dichloromethane solvate], the Ki worked out at 106 nM.

The next data set concerns the target T1, 5-HT1A receptors (Rattus norvegicus, UniProt P19327).
T1 construct: Hippocampal tissue from the brains of male Charles River CD rats; from tissue; host or cells: rat hippocampus membrane homogenate
T1 sequence (P19327 1-422): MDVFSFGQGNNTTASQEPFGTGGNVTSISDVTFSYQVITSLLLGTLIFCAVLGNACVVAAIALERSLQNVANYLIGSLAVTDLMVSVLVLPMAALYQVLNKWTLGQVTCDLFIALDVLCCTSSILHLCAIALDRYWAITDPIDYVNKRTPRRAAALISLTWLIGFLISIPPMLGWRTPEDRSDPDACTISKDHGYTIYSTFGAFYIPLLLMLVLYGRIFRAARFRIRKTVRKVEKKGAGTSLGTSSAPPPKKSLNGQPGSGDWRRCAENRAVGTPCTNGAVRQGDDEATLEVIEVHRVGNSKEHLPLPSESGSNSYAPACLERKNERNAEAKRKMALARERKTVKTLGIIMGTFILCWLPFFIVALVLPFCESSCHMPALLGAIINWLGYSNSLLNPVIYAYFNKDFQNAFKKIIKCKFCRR
As to the kind of experiment: Inhibition of [3H]8-OH-DPAT binding to 5-HT1A receptors in rat hippocampal tissue. The settings on record: ligand [3H]8-OH-DPAT 2 nM, 25° C., 30 minutes. The method, then:
Hippocampal tissue from the brains of male Charles River CD rats weighing between 150-250 g were homogenised in ice-cold 50 mM Tris-HCl buffer (pH 7.7) when measured at 25° C., 1:40 w/v) and centrifuged at 30,000 g at 4° C. for 10 minutes. The pellet was rehomogenised in the same buffer, incubated at 37° C. for 10 minutes and centrifuged at 30,000 g at 4° C. for 10 minutes. The final pellet was resuspended in 50 mM Tris-HCl buffer (pH 7.7) containing 4 mM CaCl2, 0.1% L-ascorbic acid and 10 μM pargyline hydrochloride (equivalent to 6.25 mg wet weight of tissue/ml) and used immediately in the binding assay. Aliquots (400 μl; equivalent to 2.5 mg wet weight of tissue/tube) of this suspension were added to tubes containing the ligand (50 μl; 2 nM) and distilled water (50 μl; total binding) or 5-HT (50 μl; 10 μM; non-specific binding) or test compound (50 μl; at a single concentration of 10^−8 M or at 10 concentrations ranging from 10^−11−10^−3 M). The ligand was [^3H]8-hydroxy-2-(dipropylamino)tetralin ([^3H]8-OH-DPAT) and the mixture was incubated at 25° C. for 30 minutes before the incubation was terminated by rapid filtration.
The filters were washed with ice-cold Tris-HCl buffer and dried. The filters were punched out into vials, scintillation fluid added and radioactivity determined by liquid scintillation counting. The percentage displacement of specific binding of the tritiated ligand was calculated for the single concentration (10^−6 M) of test compound. Displacement curves were then produced for those compounds which displaced ≧50% of specific binding of the tritiated ligand at 10^−6 M using a range of concentrations of the compound. The concentration which gave 50% inhibition of specific binding (IC50) was obtained from the curve. The inhibition coefficient Ki was then calculated using the formula [formula]
in which [ligand] is the concentration of the tritiated ligand used and KD is the equilibrium dissociation constant for the ligand.
Consider `COc1ccccc1N1CCC(CNC[C@H]2COc3ccc4scc(Cl)c4c3O2)CC1` [Example 1, (S)-N-(9-chloro-2,3-dihydrothieno[3,2-f]-1,4-benzodioxin-2-ylmethyl)-1-[1-(2-methoxyphenyl)piperid-4-yl]methylamine 0.5 fumarate], for which the affinity corresponds to a Ki of 36 nM.

On to `COc1ccccc1N1CCC(CNC[C@H]2COc3ccc4sccc4c3O2)CC1.O=C(O)/C=C/C(=O)O` [Example 2, (S)-N-(2,3-dihydrothieno[3,2-f]-1,4-benzodioxin-2-ylmethyl)-1-[1-(2-methoxyphenyl)piperid-4-yl]methylamine monofumarate], for which the Ki turned out to be 9.7 nM.

`COc1ccccc1N1CCC(CNC[C@H]2COc3ccc4[nH]ncc4c3O2)CC1` [Example 5, (S)-N-(2,3-dihydro-7H-1,4-dioxino[2,3-e]indazol-2-ylmethyl)-1-[1-(2-methoxyphenyl)piperid-4-yl]methylamine] displayed a Ki of 1.2 nM.

`COc1ccccc1N1CCC(CNC[C@H]2COc3ccc4occc4c3O2)CC1` [Example 6, (S)-N-(2,3-dihydrofuro[3,2-f]-1,4-benzodioxin-2-ylmethyl)-1-[1-(2-methoxyphenyl)piperid-4-yl]methylamine monofumarate monohydrate]: the Ki turned out to be 1.7 nM. The Ki values of the last two molecules are within 1.5-fold of each other.

In turn, `Oc1ccccc1N1CCC(CNC[C@H]2COc3ccc4occc4c3O2)CC1` [Example 7, (S)-2-{4-[(2,3-Dihydrofuro[3,2-f]-1,4-benzodioxin-2-ylmethyl)-aminomethyl]piperidino}phenol monofumarate 1.1 hydrate, 0.25 ethanol solvate] displayed a Ki of 3.6 nM.

The molecule `COc1ccccc1N1CCC(CNC[C@H]2COc3ccc4c(c3O2)OCO4)CC1` [Example 8, (S)-N-(7,8-methylenedioxy-2,3-dihydro-1,4-benzodioxin-2-ylmethyl)-1-[1-(2-methoxyphenyl)piperid-4-yl]methyl-amine monocitrate] gave a Ki of 1.1 nM.

Still in this data set, the particulars now being: single concentration 10^−6 M of test compound, ligand [3H]8-OH-DPAT.
With `CCOC(=O)c1cc2c3c(ccc2[nH]1)OC[C@H](CNCC1CCN(c2ccccc2OC)CC1)O3` [Example 3, ethyl (S)-2,3-dihydro-2-(N-{[1-(2-methoxyphenyl)piperid-4-yl]methyl}aminomethyl)-7H-1,4-dioxino[2,3-e]indole-8-carboxylate 0.05 dichloromethane solvate], the “% displacement at 10^−6 M, 5-HT1A” value is listed as 99%.

`COc1ccccc1N1CCC(CNC[C@H]2COc3ccc4[nH]ccc4c3O2)CC1` [Example 4, (S)-N-(2,3-dihydro-7H-1,4-dioxino[2,3-e]indol-2-ylmethyl)-1-[1-(2-methoxyphenyl)piperid-4-yl]methylamine 0.1 hydrate]: the “% displacement at 10^−6 M, 5-HT1A” value is 99%.

System in the next data set: not given
Assay: not given
Conditions: not given
For orientation: melting point means the temperature of the solid-liquid transition. As for `Oc1ccccc1N1CCC(CNC[C@H]2COc3ccc4occc4c3O2)CC1` (as salt: fumarate) (hydrate or solvate) [Example 7, (S)-2-{4-[(2,3-Dihydrofuro[3,2-f]-1,4-benzodioxin-2-ylmethyl)-aminomethyl]piperidino}phenol monofumarate 1.1 hydrate, 0.25 ethanol solvate], the melting point lay in the range of 88 to 89 °C.

Molecule `COc1ccccc1N1CCC(CNC[C@H]2COc3ccc4scc(Cl)c4c3O2)CC1` (as salt: fumarate) [Example 1, (S)-N-(9-chloro-2,3-dihydrothieno[3,2-f]-1,4-benzodioxin-2-ylmethyl)-1-[1-(2-methoxyphenyl)piperid-4-yl]methylamine 0.5 fumarate] displayed a melting point of 171 to 172 °C.

In turn, `COc1ccccc1N1CCC(CNC[C@H]2COc3ccc4[nH]ccc4c3O2)CC1` (hydrate or solvate) [Example 4, (S)-N-(2,3-dihydro-7H-1,4-dioxino[2,3-e]indol-2-ylmethyl)-1-[1-(2-methoxyphenyl)piperid-4-yl]methylamine 0.1 hydrate] displayed a melting point of 162 to 163 °C.

With `COc1ccccc1N1CCC(CNC[C@H]2COc3ccc4occc4c3O2)CC1.O.O=C(O)/C=C/C(=O)O` (hydrate or solvate) [Example 6, (S)-N-(2,3-dihydrofuro[3,2-f]-1,4-benzodioxin-2-ylmethyl)-1-[1-(2-methoxyphenyl)piperid-4-yl]methylamine monofumarate monohydrate], the melting point lay within 95 to 96 °C.

As to `COc1ccccc1N1CCC(CNC[C@H]2COc3ccc4sccc4c3O2)CC1.O=C(O)/C=C/C(=O)O` [Example 2, (S)-N-(2,3-dihydrothieno[3,2-f]-1,4-benzodioxin-2-ylmethyl)-1-[1-(2-methoxyphenyl)piperid-4-yl]methylamine monofumarate], the melting point was 180 to 182 °C.

Source of the values: patent US6353002B2, “Therapeutic agents” (Knoll Aktiengesellschaft, priority 1997, dated 2002).
